Assay [1] addresses T1, GRK5 (Homo sapiens, UniProt P34947).
T1 construct: purchased Thermo Scientific
Kind of assay: Lance Kinase Activity Assay, GRK5. Conditions: biochemical Lance kinase activity assay; class symbols A-F; read-out: GRK5 LANCE Assay (IC-50). In short, it runs like this:
(§1)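 IC50s from sigmoidal dose-response over 0.0025-10 μM compound, with phosphorylated ULight substrate detected by Eu anti-phospho antibody FRET after EDTA quench.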

In assay [2] the target is T2, GRK2 (Homo sapiens, UniProt P25098).
T2 construct: purchased Thermo Scientific
T2 sequence (P25098 1-689): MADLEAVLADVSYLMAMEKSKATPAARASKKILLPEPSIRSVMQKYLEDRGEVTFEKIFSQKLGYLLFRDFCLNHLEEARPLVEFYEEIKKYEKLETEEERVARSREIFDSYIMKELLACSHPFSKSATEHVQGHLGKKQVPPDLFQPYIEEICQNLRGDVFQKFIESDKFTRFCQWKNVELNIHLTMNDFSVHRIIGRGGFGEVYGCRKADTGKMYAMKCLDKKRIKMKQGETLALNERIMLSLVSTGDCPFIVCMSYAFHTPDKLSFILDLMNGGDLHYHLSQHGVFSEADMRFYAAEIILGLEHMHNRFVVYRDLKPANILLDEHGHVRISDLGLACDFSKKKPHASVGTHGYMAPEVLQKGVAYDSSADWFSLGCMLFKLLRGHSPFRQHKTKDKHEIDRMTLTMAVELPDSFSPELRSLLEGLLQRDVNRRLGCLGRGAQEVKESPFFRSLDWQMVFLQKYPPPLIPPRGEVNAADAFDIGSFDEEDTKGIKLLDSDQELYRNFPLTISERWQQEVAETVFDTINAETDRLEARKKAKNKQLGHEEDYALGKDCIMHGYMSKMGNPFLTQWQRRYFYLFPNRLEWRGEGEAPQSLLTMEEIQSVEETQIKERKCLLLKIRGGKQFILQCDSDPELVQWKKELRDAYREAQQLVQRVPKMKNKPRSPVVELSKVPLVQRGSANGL
Briefly: Lance Kinase Activity Assay, GRK2. Conditions: biochemical Lance kinase activity assay; class symbols A-F; read-out: GRK2 LANCE Assay (IC-50). In short, it runs like this:
as §1

The record followed here is patent US20240294522A1 (Lead Discovery Center GmbH, priority 2021, published 2024).

Molecules are shown by their SMILES.

T1 sequence (P34947 whole entry): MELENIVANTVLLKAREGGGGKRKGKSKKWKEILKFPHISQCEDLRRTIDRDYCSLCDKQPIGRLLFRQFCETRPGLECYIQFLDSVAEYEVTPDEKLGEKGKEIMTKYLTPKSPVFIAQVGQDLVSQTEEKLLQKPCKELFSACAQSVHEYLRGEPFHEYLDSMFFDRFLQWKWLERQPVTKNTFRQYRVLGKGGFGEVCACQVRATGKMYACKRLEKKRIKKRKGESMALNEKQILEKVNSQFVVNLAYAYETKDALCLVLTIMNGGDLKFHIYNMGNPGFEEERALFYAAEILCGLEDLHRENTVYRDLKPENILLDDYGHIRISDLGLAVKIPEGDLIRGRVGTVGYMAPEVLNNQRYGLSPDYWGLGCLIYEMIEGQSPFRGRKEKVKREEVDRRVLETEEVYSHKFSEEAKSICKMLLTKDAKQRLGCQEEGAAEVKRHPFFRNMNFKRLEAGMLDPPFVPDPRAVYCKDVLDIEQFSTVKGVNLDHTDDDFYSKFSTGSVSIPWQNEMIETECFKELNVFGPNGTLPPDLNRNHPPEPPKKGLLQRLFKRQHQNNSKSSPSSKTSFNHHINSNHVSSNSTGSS

Regarding `COc1ccc([C@@H](C)NC(=O)/C(C#N)=C/c2c[nH]c3ncc(OC(C)C)cc23)cc1OC` [Example 102, (R,E)-2-cyano-N-(1-(3,4-dimethoxyphenyl)ethyl)-3-(5-isopropoxy-1H-pyrrolo[2,3-b]pyridin-3-yl)acrylamide], the IC50 in assay [1] was ≤ 50 nM; in assay [2], > 10000 nM.
For `COc1ccc([C@@H](C)NC(=O)/C(C#N)=C/c2c[nH]c3ncc(OC4CCOC4)cc23)cc1OC` (stereo partly drawn) [Example 103, (E)-2-cyano-N-((R)-1-(3,4-dimethoxyphenyl)ethyl)-3-(5-((tetrahydrofuran-3-yl)oxy)-1H-pyrrolo[2,3-b]pyridin-3-yl)acrylamide] the same measures were ≤ 50 nM and 1000 to 10000 nM.
For `COc1ccc([C@@H](C)NC(=O)/C(C#N)=C/c2c[nH]c3ncc(OC4CCS(=O)(=O)CC4)cc23)cc1OC` [Example 105, (R,E)-2-cyano-N-(1-(3,4-dimethoxyphenyl)ethyl)-3-(5-((1,1-dioxidotetrahydro-2H-thiopyran-4-yl)oxy)-1H-pyrrolo[2,3-b]pyridin-3-yl)acrylamide] the same measures were ≤ 50 nM and 1000 to 10000 nM.
For `COc1ccc([C@@H](C)NC(=O)/C(C#N)=C/c2c[nH]c3ncc(OCc4nccn4C)cc23)cc1OC` [Example 106, (R,E)-2-cyano-N-(1-(3,4-dimethoxyphenyl)ethyl)-3-(5-((1-methyl-1H-imidazol-2-yl)methoxy)-1H-pyrrolo[2,3-b]pyridin-3-yl)acrylamide] the same measures were ≤ 50 nM and 1000 to 10000 nM.
Consider `COc1ccc([C@@H](C)NC(=O)/C(C#N)=C/c2c[nH]c3ncc(O[C@@H]4CCOC4)cc23)cc1OC` [Example 107, (E)-2-cyano-N-((R)-1-(3,4-dimethoxyphenyl)ethyl)-3-(5-(((R)-tetrahydrofuran-3-yl)oxy)-1H-pyrrolo[2,3-b]pyridin-3-yl)acrylamide], for which the IC50 in assay [1] is ≤ 50 nM; in assay [2], 500 to 1000 nM.
For `COc1ccc([C@@H](C)NC(=O)/C(C#N)=C/c2c[nH]c3ncc(O[C@H]4CCOC4)cc23)cc1OC` [Example 108, (E)-2-cyano-N-((R)-1-(3,4-dimethoxyphenyl)ethyl)-3-(5-(((S)-tetrahydrofuran-3-yl)oxy)-1H-pyrrolo[2,3-b]pyridin-3-yl)acrylamide], the IC50 in assay [1] is ≤ 50 nM; in assay [2] it was 1000 to 10000 nM.
For `CC[C@H](C)Oc1cnc2[nH]cc(/C=C(\C#N)C(=O)N[C@H](C)c3ccc(OC)c(OC)c3)c2c1` [Example 109, (E)-3-(5-((S)-sec-butoxy)-1H-pyrrolo[2,3-b]pyridin-3-yl)-2-cyano-N-((R)-1-(3,4-dimethoxyphenyl)ethyl)acrylamide] the same measures were ≤ 50 nM and > 10000 nM.
For the compound `COc1ccc([C@@H](C)NC(=O)/C(C#N)=C/c2c[nH]c3ncc(OC4CCOCC4)cc23)cc1OC` [Example 111, (R,E)-2-cyano-N-(1-(3,4-dimethoxyphenyl)ethyl)-3-(5-((tetrahydro-2H-pyran-4-yl)oxy)-1H-pyrrolo[2,3-b]pyridin-3-yl)acrylamide], the IC50 in assay [1] was ≤ 50 nM; in assay [2], 1000 to 10000 nM.
For `COc1ccc([C@@H](C)NC(=O)/C(C#N)=C/c2c[nH]c3ncc(-c4ccc(N5CCN(C)CC5)cc4)cc23)cc1OC` [Example 112, (R,E)-2-cyano-N-(1-(3,4-dimethoxyphenyl)ethyl)-3-(5-(4-(4-methylpiperazin-1-yl)phenyl)-1H-pyrrolo[2,3-b]pyridin-3-yl)acrylamide] the same measures were ≤ 50 nM and 500 to 1000 nM.
For the compound `COc1ccc([C@@H](C)NC(=O)/C=C/c2c[nH]c3ncc(-c4cccc(S(C)(=O)=O)c4)cc23)cc1OC` [Example 114, (R,E)-N-(1-(3,4-dimethoxyphenyl)ethyl)-3-(5-(3-(methylsulfonyl)phenyl)-1H-pyrrolo[2,3-b]pyridin-3-yl)acrylamide], the IC50 in assay [1] was ≤ 50 nM; in assay [2], 1000 to 10000 nM.
For `COc1ccc([C@@H](C)NC(=O)/C=C/c2c[nH]c3ncc(-c4cc(F)cc(F)c4)cc23)cc1OC` [Example 115, (R,E)-3-(5-(3,5-difluorophenyl)-1H-pyrrolo[2,3-b]pyridin-3-yl)-N-(1-(3,4-dimethoxyphenyl)ethyl)acrylamide] the same measures were 100 to 500 nM and > 10000 nM.
For `COc1ccc([C@@H](C)NC(=O)/C(C#N)=C/c2c[nH]c3ncc(-c4ccccc4)cc23)cc1OC` [Example 116] the same measures were 50 to 100 nM and > 10000 nM.
For `COc1ccc([C@@H](C)NC(=O)/C(C#N)=C/c2c[nH]c3ncc(-c4cccc(CN5CCN(C)CC5)c4)cc23)cc1OC` [Example 118, (R,E)-2-cyano-N-(1-(3,4-dimethoxyphenyl)ethyl)-3-(5-(3-((4-methylpiperazin-1-yl)methyl)phenyl)-1H-pyrrolo[2,3-b]pyridin-3-yl)acrylamide] the same measures were ≤ 50 nM and 1000 to 10000 nM.
As for `COc1ccc([C@@H](C)NC(=O)/C(C#N)=C/c2c[nH]c3ncc(-c4ccc(C(F)(F)F)cc4)cc23)cc1OC` [Example 119], the IC50 in assay [1] was 1000 to 10000 nM; in assay [2], > 10000 nM.
For `COc1ccc([C@@H](C)NC(=O)/C(C#N)=C/c2c[nH]c3ncc(-c4cncnc4)cc23)cc1OC` [Example 120, (R,E)-2-cyano-N-(1-(3,4-dimethoxyphenyl)ethyl)-3-(5-(pyrimidin-5-yl)-1H-pyrrolo[2,3-b]pyridin-3-yl)acrylamide] the same measures were 50 to 100 nM and 1000 to 10000 nM.
For `CCN1CCN(S(=O)(=O)c2ccc(-c3cnc4[nH]cc(/C=C(\C#N)C(=O)N[C@H](C)c5ccc(OC)c(OC)c5)c4c3)cc2)CC1` [Example 121, (R,E)-2-cyano-N-(1-(3,4-dimethoxyphenyl)ethyl)-3-(5-(4-((4-ethylpiperazin-1-yl)sulfonyl)phenyl)-1H-pyrrolo[2,3-b]pyridin-3-yl)acrylamide] the same measures were 100 to 500 nM and > 10000 nM.
For `COc1ccc([C@@H](C)NC(=O)/C(C#N)=C/c2c[nH]c3ncc(-c4cccc(N5CCN(C)CC5)c4)cc23)cc1OC` [Example 122, (R,E)-2-cyano-N-(1-(3,4-dimethoxyphenyl)ethyl)-3-(5-(3-(4-methylpiperazin-1-yl)phenyl)-1H-pyrrolo[2,3-b]pyridin-3-yl)acrylamide] the same measures were ≤ 50 nM and > 10000 nM.
Consider `COc1ccc([C@@H](C)NC(=O)/C(C#N)=C/c2c[nH]c3ncc(-c4ccc(F)cc4OC)cc23)cc1OC` [Example 123], for which the results for the IC50 in assay [1] and in assay [2] were 100 to 500 nM and > 10000 nM, respectively.
For `COc1ccc([C@@H](C)NC(=O)/C(C#N)=C/c2c[nH]c3ncc(-c4ccccc4OC)cc23)cc1OC` [Example 124] the same measures were 100 to 500 nM and > 10000 nM.
For `COc1ccc([C@@H](C)NC(=O)/C(C#N)=C/c2c[nH]c3ncc(-c4cccc(S(C)(=O)=O)c4)cc23)cc1OC` [Example 125] the same measures were ≤ 50 nM and > 10000 nM.
For `COc1ccc([C@@H](C)NC(=O)/C(C#N)=C/c2c[nH]c3ncc(-c4ccc(C(N)=O)cc4)cc23)cc1OC` [Example 126, (R,E)-4-(3-(2-cyano-3-((1-(3,4-dimethoxyphenyl)ethyl)amino)-3-oxoprop-1-en-1-yl)-1H-pyrrolo[2,3-b]pyridin-5-yl)benzamide] the same measures were 50 to 100 nM and > 10000 nM.
`COc1ccc([C@@H](C)NC(=O)/C(C#N)=C/c2c[nH]c3ncc(-c4cccc(C(=O)N5CCOCC5)c4)cc23)cc1OC` [Example 127, (R,E)-2-cyano-N-(1-(3,4-dimethoxyphenyl)ethyl)-3-(5-(3-(morpholine-4-carbonyl)phenyl)-1H-pyrrolo[2,3-b]pyridin-3-yl)acrylamide]: the IC50 was ≤ 50 nM in assay [1] and > 10000 nM in assay [2].
For `COc1ccc([C@@H](C)NC(=O)/C(C#N)=C/c2c[nH]c3ncc(-c4cccc(N(C)C)c4)cc23)cc1OC` [Example 128, (R,E)-2-cyano-N-(1-(3,4-dimethoxyphenyl)ethyl)-3-(5-(3-(dimethylamino)phenyl)-1H-pyrrolo[2,3-b]pyridin-3-yl)acrylamide] the same measures were 100 to 500 nM and > 10000 nM.
For `COc1ccc([C@@H](C)NC(=O)/C(C#N)=C/c2c[nH]c3ncc(-c4ccccc4CN4CCCCC4)cc23)cc1OC` [Example 129, (R,E)-2-cyano-N-(1-(3,4-dimethoxyphenyl)ethyl)-3-(5-(2-(piperidin-1-ylmethyl)phenyl)-1H-pyrrolo[2,3-b]pyridin-3-yl)acrylamide] the same measures were 1000 to 10000 nM and > 10000 nM.
For `COc1ccc([C@@H](C)NC(=O)/C(C#N)=C/c2c[nH]c3ncc(-c4cccnc4)cc23)cc1OC` [Example 130] the same measures were ≤ 50 nM and > 10000 nM.
As for `COc1ccc([C@@H](C)NC(=O)/C(C#N)=C/c2c[nH]c3ncc(-c4cc(F)cc(F)c4)cc23)cc1OC` [Example 131], the IC50 was 50 to 100 nM in assay [1] and 1000 to 10000 nM in assay [2].
